Earlier results, collected in patent publication EP1239029B1, “Cleaning compositions” (UNILEVER PLC, priority 2001, dated 2002).
Like-named read-outs stand apart in the source and are kept apart here.

[1] = other common materials, by contrast, at 20°C

Q: With `O=BO[O-].[Na+]` [Sodium perborate anhydrous] as the compound, how does the “Water Solubility (g/100g)” value [1] read?
A: The value was 3.7 g/100g.

Q: With `O=P(O)(O)OP(=O)(O)OP(=O)(O)O` [Sodium tripolyphosphate anhydrous] as the compound, how does the “Water Solubility (g/100g)” value [1] read?
A: Its value is 15 g/100g.

Q: With `NC(N)=O` [Urea] as the compound, how does the “Water Solubility (g/100g)” value (highly water-soluble materials, grams of solid to form a saturated solution in 100 grams of water at 20°C) read?
A: Its value is greater than 100 g/100g.
